Tests used:
Adenosine receptor A3 [1] = biological target: T1, Adenosine receptor A3 (Homo sapiens, UniProt P0DMS8); assay: Displacement of [3H]PSB11 from human recombinant adenosine A3 receptor expressed in CHO cells; assay type: cell-based
T1 sequence (P0DMS8 whole entry): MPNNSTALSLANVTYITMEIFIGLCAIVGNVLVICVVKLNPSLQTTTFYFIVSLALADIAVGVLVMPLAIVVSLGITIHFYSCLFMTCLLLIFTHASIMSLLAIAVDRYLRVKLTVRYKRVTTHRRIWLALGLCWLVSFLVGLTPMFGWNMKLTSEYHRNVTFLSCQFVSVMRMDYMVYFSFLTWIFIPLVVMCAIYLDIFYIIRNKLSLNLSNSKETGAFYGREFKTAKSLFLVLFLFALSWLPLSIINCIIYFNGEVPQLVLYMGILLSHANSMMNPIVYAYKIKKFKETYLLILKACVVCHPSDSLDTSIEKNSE

Adenosine receptor A1 [2] = biological target: T2, Adenosine receptor A1 (Rattus norvegicus, UniProt P25099); assay: Displacement of [3H]CCPA from adenosine A1 receptor in rat brain cortical membranes; assay type: cell membranes, Membrane
T2 sequence (P25099 whole entry): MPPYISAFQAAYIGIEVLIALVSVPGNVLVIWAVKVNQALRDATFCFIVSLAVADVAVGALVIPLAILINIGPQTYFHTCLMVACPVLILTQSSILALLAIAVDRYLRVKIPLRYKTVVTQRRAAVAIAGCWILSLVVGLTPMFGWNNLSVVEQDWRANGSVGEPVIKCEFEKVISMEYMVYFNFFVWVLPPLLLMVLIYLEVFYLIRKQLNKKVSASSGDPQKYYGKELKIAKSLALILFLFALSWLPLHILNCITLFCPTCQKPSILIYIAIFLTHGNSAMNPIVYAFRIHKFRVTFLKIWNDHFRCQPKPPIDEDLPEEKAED

Adenosine receptor A2a [3] = biological target: Adenosine receptor A2a (Rattus norvegicus, UniProt P30543); assay: Displacement of [3H]MSX2 from adenosine A2A receptor in rat brain striatal membranes; assay type: cell membranes, Membrane
Adenosine receptor A2b = biological target: T3, Adenosine receptor A2b (Homo sapiens, UniProt P29275); assay: Displacement of [3H]PSB298 from human recombinant adenosine A2B receptor expressed in CHO cells; assay type: cell-based
T3 sequence (P29275 whole entry): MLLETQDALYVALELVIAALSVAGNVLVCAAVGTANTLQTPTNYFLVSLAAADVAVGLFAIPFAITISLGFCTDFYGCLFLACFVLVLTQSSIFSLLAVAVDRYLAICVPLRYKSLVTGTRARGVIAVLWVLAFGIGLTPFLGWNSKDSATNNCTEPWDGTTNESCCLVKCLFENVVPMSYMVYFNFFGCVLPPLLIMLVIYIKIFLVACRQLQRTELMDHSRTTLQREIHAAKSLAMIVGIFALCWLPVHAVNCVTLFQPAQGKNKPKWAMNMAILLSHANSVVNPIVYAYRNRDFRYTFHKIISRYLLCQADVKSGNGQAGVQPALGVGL

[4] = biological target: T4, Adenosine receptor A3 (Homo sapiens) (UniProt P0DMS8); assay: (§1) Inhibition of [3H]PSB11 binding to human recombinant adenosine A3 receptor in CHO cells at >=10 uM; assay type: cell-based
T4 sequence (whole entry): T1 sequence (P0DMS8 whole entry)

[5] = biological target: Adenosine receptors; A2b & A3 (Homo sapiens) (UniProt P29275+P0DMS8); assay: Selectivity for human adenosine A2B receptor over adenosine A3 receptor; assay type: protein assay
[6] = biological target: Adenosine receptors; A1 & A2b (Homo sapiens) (UniProt P30542+P29275); assay: Selectivity for human adenosine A2B receptor over adenosine A1 receptor; assay type: protein assay
Adenosine receptor A2a [7] = biological target: Adenosine receptor A2a (Homo sapiens, UniProt P29274); assay: Displacement of [3H]MSX2 from human recombinant adenosine A2A receptor expressed in CHO cells; assay type: cell-based
Adenosine receptor A1 [8] = biological target: T5, Adenosine receptor A1 (Homo sapiens, UniProt P30542); assay: Displacement of [3H]CCPA from human recombinant adenosine A1 receptor expressed in CHO cells; assay type: cell-based
T5 sequence (P30542 whole entry): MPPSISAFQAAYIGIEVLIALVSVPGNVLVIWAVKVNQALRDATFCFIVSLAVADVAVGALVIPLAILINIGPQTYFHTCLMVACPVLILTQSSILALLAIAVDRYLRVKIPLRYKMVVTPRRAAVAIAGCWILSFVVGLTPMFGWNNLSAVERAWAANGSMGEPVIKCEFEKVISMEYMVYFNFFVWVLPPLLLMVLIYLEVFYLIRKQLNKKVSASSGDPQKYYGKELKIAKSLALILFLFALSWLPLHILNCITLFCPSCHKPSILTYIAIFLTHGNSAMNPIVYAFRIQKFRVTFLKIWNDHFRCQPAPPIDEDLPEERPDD

Adenosine receptor A3 [9] = biological target: T1, Adenosine receptor A3; assay: as §1; assay type: cell-based
Adenosine receptor A3 [10] = biological target: T1, Adenosine receptor A3; assay: Displacement of [125I]AB-MECA from human recombinant adenosine A3 receptor expressed in CHO cells; assay type: cell-based
[11] = biological target: T4, Adenosine receptor A3 (Homo sapiens); assay: Inhibition of [3H]PSB11 binding to human recombinant adenosine A3 receptor in CHO cells at >10 uM; assay type: cell-based
[12] = biological target: T4, Adenosine receptor A3 (Homo sapiens); assay: Inhibition of [3H]PSB11 binding to human recombinant adenosine A3 receptor in CHO cells at >1 uM; assay type: cell-based
[13] = biological target: T4, Adenosine receptor A3 (Homo sapiens); assay: Inhibition of [3H]PSB11 binding to human recombinant adenosine A3 receptor in CHO cells at >=1 uM; assay type: cell-based

Adenosine receptor A2a (Homo sapiens, UniProt P29274), sequence (P29274 whole entry): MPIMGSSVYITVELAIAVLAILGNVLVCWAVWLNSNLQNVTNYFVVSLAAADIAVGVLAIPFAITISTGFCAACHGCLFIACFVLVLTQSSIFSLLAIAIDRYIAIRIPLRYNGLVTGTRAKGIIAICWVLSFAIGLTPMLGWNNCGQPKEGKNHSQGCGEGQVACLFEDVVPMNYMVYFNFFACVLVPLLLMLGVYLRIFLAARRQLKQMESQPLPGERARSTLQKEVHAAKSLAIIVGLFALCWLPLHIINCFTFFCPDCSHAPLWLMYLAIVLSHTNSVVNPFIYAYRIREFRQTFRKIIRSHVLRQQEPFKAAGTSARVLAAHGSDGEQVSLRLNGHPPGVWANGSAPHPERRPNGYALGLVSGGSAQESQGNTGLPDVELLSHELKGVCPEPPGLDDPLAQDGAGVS
Adenosine receptor A2a (Rattus norvegicus, UniProt P30543), sequence (P30543 whole entry): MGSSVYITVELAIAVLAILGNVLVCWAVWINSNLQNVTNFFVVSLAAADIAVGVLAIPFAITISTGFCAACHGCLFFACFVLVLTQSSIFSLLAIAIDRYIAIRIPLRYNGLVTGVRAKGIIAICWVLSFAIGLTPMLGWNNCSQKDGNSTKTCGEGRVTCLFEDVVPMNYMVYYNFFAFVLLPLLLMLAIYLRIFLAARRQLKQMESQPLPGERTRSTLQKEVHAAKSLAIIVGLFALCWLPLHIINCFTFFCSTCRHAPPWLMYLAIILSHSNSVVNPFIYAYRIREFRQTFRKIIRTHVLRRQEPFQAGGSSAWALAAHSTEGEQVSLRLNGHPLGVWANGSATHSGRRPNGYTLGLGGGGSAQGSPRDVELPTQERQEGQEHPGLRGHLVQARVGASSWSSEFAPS

Compound	Ki (Adenosine receptor A3 [1])	Ki (Adenosine receptor A1 [2])	Ki (Adenosine receptor A2a [3])	Ki (Adenosine receptor A2b)	also measured
Cn1c(=O)c2[nH]c(-c3ccc(S(=O)(=O)NCCO)cc3)nc2n(C)c1=O	≥ 10000 nM	98 nM	347 nM	250 nM	
CCCn1c(=O)[nH]c2[nH]c(-c3ccc(S(=O)(=O)NCCc4ccccc4)cc3)nc2c1=O	≥ 10000 nM	10 nM	297 nM	3.62 nM	inhibition [4]: 37%; Selectivity ratio [5]: > 2700; Selectivity ratio [6]: 50; Ki (Adenosine receptor A2a [7]): 769 nM; Ki (Adenosine receptor A1 [8]): 183 nM
CCCCNS(=O)(=O)c1ccc(-c2nc3c(=O)n(C)c(=O)n(C)c3[nH]2)cc1					inhibition [4]: 43%
Cn1c(=O)c2nc(-c3ccc(S(=O)(=O)NCC(=O)O)cc3)[nH]c2n(C)c1=O	≥ 10000 nM	64 nM	182 nM	154 nM	inhibition (Adenosine receptor A3 [9]): 41%
CCCn1c(=O)[nH]c2nc(-c3ccc(S(=O)(=O)O)cc3)[nH]c2c1=O	> 10000 nM				Ki (Adenosine receptor A1 [8]): > 10000 nM
CCCN(CCC)S(=O)(=O)c1ccc(-c2nc3[nH]c(=O)n(CCC)c(=O)c3[nH]2)cc1	> 1000 nM	5.5 nM	42 nM	53.8 nM	
CCCn1c(=O)[nH]c2nc(-c3ccc(S(=O)(=O)NCC(=O)O)cc3)[nH]c2c1=O	> 10000 nM	100 nM	320 nM	101 nM	
Cn1c(=O)c2[nH]c(-c3ccc(S(=O)(=O)NCCc4ccccc4)cc3)nc2n(C)c1=O	1080 nM	12 nM	113 nM	4.48 nM	Ki (Adenosine receptor A2a [7]): 32.6 nM; Ki (Adenosine receptor A1 [8]): 185 nM
Cn1c(=O)c2[nH]c(-c3ccc(S(=O)(=O)O)cc3)nc2n(C)c1=O					Ki (Adenosine receptor A3 [10]): 5890 nM
Cn1c(=O)c2nc(-c3ccc(S(=O)(=O)NCCO)cc3)[nH]c2n(C)c1=O					inhibition [4]: 49%
CCCn1c(=O)[nH]c2[nH]c(-c3ccc(S(=O)(=O)NCC(=O)O)cc3)nc2c1=O					inhibition [11]: 25%
CCCN(CCC)S(=O)(=O)c1ccc(-c2nc3c(=O)n(CCC)c(=O)[nH]c3[nH]2)cc1					inhibition [12]: 18%
CC(C)NS(=O)(=O)c1ccc(-c2nc3c([nH]2)c(=O)n(C)c(=O)n3C)cc1	> 10000 nM	75 nM	283 nM	102 nM	
CCCn1c(=O)[nH]c2nc(-c3ccc(S(=O)(=O)N4CCN(Cc5ccccc5)CC4)cc3)[nH]c2c1=O	> 1000 nM	260 nM	93.7 nM	3.6 nM	Selectivity ratio [5]: > 278; Selectivity ratio [6]: 574; Ki (Adenosine receptor A2a [7]): 484 nM; Ki (Adenosine receptor A1 [8]): 2070 nM; inhibition [12]: 29%
CCCn1c(=O)[nH]c2[nH]c(-c3ccc(S(=O)(=O)NCCO)cc3)nc2c1=O	≥ 10000 nM	45 nM	287 nM	27.1 nM	inhibition [4]: 36%
CC(C)NS(=O)(=O)c1ccc(-c2nc3c(=O)n(C)c(=O)n(C)c3[nH]2)cc1					inhibition [11]: 27%
CCCn1c(=O)[nH]c2[nH]c(-c3ccc(S(=O)(=O)NCc4ccccc4)cc3)nc2c1=O	≥ 1000 nM	4.6 nM	26.7 nM	4.2 nM	inhibition [13]: 41%; Selectivity ratio [5]: > 200; Selectivity ratio [6]: 13; Ki (Adenosine receptor A2a [7]): 162 nM; Ki (Adenosine receptor A1 [8]): 54.8 nM
CCCCNS(=O)(=O)c1ccc(-c2nc3c([nH]2)c(=O)n(C)c(=O)n3C)cc1	≥ 10000 nM	27 nM	165 nM	122 nM	
CCCn1c(=O)[nH]c2[nH]c(-c3ccc(S(=O)(=O)Nc4ccccc4)cc3)nc2c1=O	≥ 1000 nM	1.8 nM	23 nM	31.4 nM	inhibition [13]: 48%

— ChEMBL document CHEMBL1138067, “A new synthesis of sulfonamides by aminolysis of p-nitrophenylsulfonates yielding potent and selective adenosine A2B receptor antagonists” (J Med Chem, 2006)
